According to PMC12439760 (Bioorganic & medicinal chemistry, 2025):

Columns and labels:
hCB2 receptor = hCB2 receptor (Homo sapiens, UniProt P34972); experiment: hCB2 Gαq16-coupled calcium mobilization assay in CHO-K1 cells; type: cell-based; conditions: hCB2 Ca EC50, CHO cells expressing hCB2 and Gαq16, calcium mobilization
hCB1 receptor = hCB1 receptor (Homo sapiens, UniProt P21554); experiment: hCB1 Gαq16-coupled calcium mobilization assay in CHO-K1 cells; type: cell-based; conditions: hCB1 Ca EC50, CHO cells expressing hCB1 and Gαq16, calcium mobilization
Sequence of hCB1 receptor (P21554 whole entry): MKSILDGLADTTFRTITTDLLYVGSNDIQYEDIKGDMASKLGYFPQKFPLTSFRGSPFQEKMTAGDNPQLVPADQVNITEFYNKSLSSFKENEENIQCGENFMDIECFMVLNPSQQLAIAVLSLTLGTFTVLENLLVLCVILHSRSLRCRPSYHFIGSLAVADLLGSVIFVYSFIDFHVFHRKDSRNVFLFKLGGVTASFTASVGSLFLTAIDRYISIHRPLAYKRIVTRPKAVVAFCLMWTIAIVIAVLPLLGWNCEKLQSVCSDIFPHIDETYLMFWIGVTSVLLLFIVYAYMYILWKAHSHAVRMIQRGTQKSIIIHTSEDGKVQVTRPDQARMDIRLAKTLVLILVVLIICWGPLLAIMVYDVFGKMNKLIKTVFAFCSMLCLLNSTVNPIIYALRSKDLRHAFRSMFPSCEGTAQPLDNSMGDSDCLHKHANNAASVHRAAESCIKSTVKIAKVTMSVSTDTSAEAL

Sequence of hCB2 receptor (P34972 whole entry): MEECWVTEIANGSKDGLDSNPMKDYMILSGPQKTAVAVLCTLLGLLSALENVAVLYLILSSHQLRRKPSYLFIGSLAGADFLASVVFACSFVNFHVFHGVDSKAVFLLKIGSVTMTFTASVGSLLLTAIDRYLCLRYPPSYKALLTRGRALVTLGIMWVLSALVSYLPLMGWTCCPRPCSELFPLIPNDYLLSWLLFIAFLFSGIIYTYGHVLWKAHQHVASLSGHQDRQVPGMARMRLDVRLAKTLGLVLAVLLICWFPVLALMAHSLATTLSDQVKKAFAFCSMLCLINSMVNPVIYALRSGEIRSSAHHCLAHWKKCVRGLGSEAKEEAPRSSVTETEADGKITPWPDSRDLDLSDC

SMILES | EC50 (hCB2 receptor) | EC50 (hCB1 receptor)
CNC(=O)C(C)(C)NC(=O)c1nn(Cc2ccc(F)cc2)c2ccccc12 [Compound 11, 2-({1-[(4-Fluorophenyl)methyl]-1H-indazol-3-yl}formamido)-N,2-dimethylpropanamide] | 21 ± 3 nM | 182 ± 6 nM
NC(=O)[C@@H](NC(=O)c1nn(Cc2ccc(F)cc2)c2ccccc12)c1ccccc1 [Compound 7, (2S)-2-({1-[(4-Fluorophenyl)methyl]-1H-indazol-3-yl}formamido)-2-phenylacetamide] | 42 ± 9 nM | 178 ± 55 nM
CC(C)(NC(=O)c1nn(Cc2ccc(F)cc2)c2ccccc12)C(=O)Nc1cccc(C(N)=O)c1 [Compound 12, 3-[2-({1-[(4-Fluorophenyl)methyl]-1H-indazol-3-yl}formamido)-2-methylpropanamido]benzamide] | 360 ± 48 nM | 360 ± 88 nM
NC(=O)C1(NC(=O)c2nn(Cc3ccc(F)cc3)c3ccccc23)CCCC1 [Compound 9, N-(1-Carbamoylcyclopentyl)-1-[(4-fluorophenyl)methyl]-1H-indazole-3-carboxamide] | 63 ± 6 nM | 1240 ± 17 nM
CC(C)(NC(=O)c1nn(Cc2ccc(Cl)cc2)c2ccccc12)c1cccc(C(N)=O)c1 [Compound 43, N-[2-(3-Carbamoylphenyl)propan-2-yl]-1-[(4-chlorophenyl)methyl]-1H-indazole-3-carboxamide] | > 10000 nM | > 10000 nM
CC1(NC(=O)c2nn(Cc3ccc(F)cc3)c3ccccc23)CCCN(CC(N)=O)C1 (centres unmarked) [Compound 42, N-[1-(Carbamoylmethyl)-3-methylpiperidin-3-yl]-1-[(4-fluorophenyl)methyl]-1H-indazole-3-carboxamide] | 41 ± 14 nM | 39 ± 1 nM
NC(=O)N1CCC[C@@H](CNC(=O)c2nn(Cc3ccc(F)cc3)c3ccccc23)C1 [Compound 29, N-{[(3S)-1-Carbamoylpiperidin-3-yl]methyl}-1-[(4-fluorophenyl)methyl]-1H-indazole-3-carboxamide] | 178 ± 45 nM | 950 ± 108 nM
O=C(NC1CCCCC1)c1nn(Cc2ccc(F)cc2)c2ccccc12 [Compound 37, N-Cyclohexyl-1-[(4-fluorophenyl)methyl]-1H-indazole-3-carboxamide] | 14 ± 3 nM | 23 ± 2 nM
CC(C)(NC(=O)c1nn(Cc2ccc(F)cc2)c2ccccc12)c1cccc(NC(N)=O)c1 [Compound 26, N-{2-[3-(Carbamoylamino)phenyl]propan-2-yl}-1-[(4-fluorophenyl)methyl]-1H-indazole-3-carboxamide] | – | 590 ± 152 nM
CC(c1ccc(F)cc1)n1nc(C(=O)NC(C)(C)c2cccc(C(N)=O)c2)c2ccccc21 (centres unmarked) [Compound 47, N-[2-(3-Carbamoylphenyl)propan-2-yl]-1-[1-(4-fluorophenyl)ethyl]-1H-indazole-3-carboxamide] | – | 243 ± 37 nM
CC(=O)Nc1cccc(C(C)(C)NC(=O)c2nn(Cc3ccc(F)cc3)c3ccccc23)c1 [Compound 25, N-[2-(3-Acetamidophenyl)propan-2-yl]-1-[(4-fluorophenyl)methyl]-1H-indazole-3-carboxamide] | 68 ± 1 nM | –
NC(=O)N1CCC[C@H](CNC(=O)c2nn(Cc3ccc(F)cc3)c3ccccc23)C1 [Compound 30, N-{[(3R)-1-Carbamoylpiperidin-3-yl]methyl}-1-[(4-fluorophenyl)methyl]-1H-indazole-3-carboxamide] | – | 671 ± 161 nM
C[C@H](NC(=O)c1nn(Cc2ccc(F)cc2)c2ccccc12)c1cccc(C(N)=O)c1 [Compound 22, N-[(1S)-1-(3-Carbamoylphenyl)ethyl]-1-[(4-fluorophenyl)methyl]-1H-indazole-3-carboxamide] | – | 26 ± 2 nM
C[C@@H](NC(=O)c1nn(Cc2ccc(F)cc2)c2ccccc12)c1cccc(C(N)=O)c1 [Compound 23, N-[(1R)-1-(3-Carbamoylphenyl)ethyl]-1-[(4-fluorophenyl)methyl]-1H-indazole-3-carboxamide] | – | 433 ± 84 nM
NC(=O)N1CCC[C@@H](NC(=O)c2nn(Cc3ccc(F)cc3)c3ccccc23)C1 [Compound 39, N-[(3R)-1-Carbamoylpiperidin-3-yl]-1-[(4-fluorophenyl)methyl]-1H-indazole-3-carboxamide] | 207 ± 66 nM | –
